From ChEMBL document CHEMBL1124893, “1,2,4-Triazolo[4,3-a]pyrazine derivatives with human renin inhibitory activity. 2. Synthesis, biological properties and molecular modeling of hydroxyethylene isostere derivatives” (J Med Chem, 1990)

Target: T1, Renin (Homo sapiens, UniProt P00797)
T1 sequence (P00797 whole entry): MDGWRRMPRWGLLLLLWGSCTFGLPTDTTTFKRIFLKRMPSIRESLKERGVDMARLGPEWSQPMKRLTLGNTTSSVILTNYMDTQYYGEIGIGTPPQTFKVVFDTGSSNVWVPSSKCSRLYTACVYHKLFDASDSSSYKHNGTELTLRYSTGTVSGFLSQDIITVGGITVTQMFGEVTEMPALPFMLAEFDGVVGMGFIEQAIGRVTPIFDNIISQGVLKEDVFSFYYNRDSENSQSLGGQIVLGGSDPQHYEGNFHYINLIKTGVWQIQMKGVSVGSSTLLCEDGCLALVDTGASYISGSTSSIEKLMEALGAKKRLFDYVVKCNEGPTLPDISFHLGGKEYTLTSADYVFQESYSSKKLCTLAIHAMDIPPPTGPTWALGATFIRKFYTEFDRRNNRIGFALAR
Assay: Inhibition of human renin

SMILES	IC50 [nM]
CCCc1nc(-c2cccnc2)cn2c(C(Cc3cccnc3)C(=O)NC(CC3CCCCC3)C(O)CC(C(=O)NCCN)C(C)C)nnc12 (centres undefined)	78
CCCCNC(=O)[C@@H](CC(O)C(CC1CCCCC1)NC(=O)Cc1nnc2c(CCC)nc(-c3cccnc3)cn12)C(C)C (some centres undefined)	26
CCCCN(C)C(=O)C(CC(O)C(CC1CCCCC1)NC(=O)C(Cc1cccnc1)c1nnc2c(CCC)nc(-c3cccnc3)cn12)C(C)C (centres undefined)	41
CCCc1nc(-c2cccnc2)cn2c(C(Cc3cccnc3)C(=O)NC(CC3CCCCC3)C(O)CC(C(=O)NCc3ccccn3)C(C)C)nnc12 (centres undefined)	0.6
CCCc1nc(-c2cccnc2)cn2c(C(Cc3cccnc3)C(=O)NC(CC3CCCCC3)C(O)CC(C(=O)NCCN3CCNCC3)C(C)C)nnc12 (centres undefined)	0.6
CCCc1nc(-c2cccnc2)cn2c(C(Cc3cccnc3)C(=O)NC(CC3CCCCC3)C(O)CC(C(=O)N(C)CCN(C)C)C(C)C)nnc12 (centres undefined)	212
CCCCNC(=O)C(CC(O)C(CC1CCCCC1)NC(=O)C(Cc1cccnc1)c1nnc2c(CCC)nc(-c3cccnc3)cn12)C(C)C (centres undefined)	0.2
CCCc1nc(-c2cccnc2)cn2c(C(Cc3cccnc3)C(=O)NC(CC3CCCCC3)C(O)CC(C(=O)NCCN(C)C)C(C)C)nnc12 (stereo in doubt; e)	0.3
CCCc1nc(-c2cccnc2)cn2c(C(Cc3cccnc3)C(=O)NC(CC3CCCCC3)C(O)CC(C(=O)NCCCCO)C(C)C)nnc12 (centres undefined)	0.3
CCCc1nc(-c2cccnc2)cn2c(C(Cc3cccnc3)C(=O)NC(CC3CCCCC3)C(O)CC(C(=O)NCCN3CCOCC3)C(C)C)nnc12 (centres undefined)	0.4
CCCc1nc(-c2cccnc2)cn2c(C(Cc3cccnc3)C(=O)NC(CC3CCCCC3)C(O)CC(C(=O)NCCN(C)C)C(C)C)nnc12 (single isomer, unassigned; less polar)	8.6
CCCCNC(=O)C(CC(O)C(CC1CCCCC1)NC(=O)Cc1nnc2c(CC(C)C)nc(-c3ccccc3)cn12)C(C)C (centres undefined)	30
CCCCNC(=O)C(CC(O)C(CC1CCCCC1)NC(=O)Cc1nnc2c(CCC)nc(-c3cccnc3)cn12)C(C)C (centres undefined)	2.7
CCCc1nc(-c2cccnc2)cn2c(C(Cc3cccnc3)C(=O)NC(CC3CCCCC3)C(O)CC(C(=O)N3CCOCC3)C(C)C)nnc12 (centres undefined)	64
